Each molecule was assayed against T1, cDNA, FLJ78895, highly similar to 3-oxo-5-alpha-steroid 4-dehydrogenase 1 (Homo sapiens, UniProt B7Z4L2) (assay: 5α-Reductase Activity Assay). Conditions: pH 6.5; 37 °C.
T1 sequence (B7Z4L2 whole entry): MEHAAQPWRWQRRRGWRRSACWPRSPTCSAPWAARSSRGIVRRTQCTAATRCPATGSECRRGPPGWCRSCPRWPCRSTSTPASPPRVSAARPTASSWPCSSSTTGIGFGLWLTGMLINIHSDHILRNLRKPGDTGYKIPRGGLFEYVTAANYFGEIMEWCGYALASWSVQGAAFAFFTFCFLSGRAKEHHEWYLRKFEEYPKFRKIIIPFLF
Experimental: The reaction mixtures contained a final volume of 1 mL, 1 mM DTT, sodium phosphate buffer 40 mM, at pH 6.5, 2 mM, NADPH, 2 nM [1,2,6,7-3H]T or [1,2,3,7-3H(N)] 4-dione and the prostatic enzyme fractions. The amount of prostatic enzyme fractions was determined to adjust the rate of conversion of T to DHT or 4-dione to 5α-dione to around 28%. T, DHT, unlabeled 4-dione or 5α-dione concentrationswere adjusted to 25-250 nM in the incubating medium, by adding one of the following reagents cold T, DHT, unlabeled 4-dione or 5α-dione. The reactions in duplicate were started when added to the enzymatic fraction (400 μg protein in a volume of 80 μL) incubated at 37°C for 60 min13 and stopped by mixing with 1 mL ofdichloromethane. Incubation without tissue was used as a control. All reactions were carried out in two different times by duplicate.

Row | Compound | IC50 [µM]
1 | CC(=O)O[C@]1(C(C)=O)CCC2C3CCC4=CC(=O)CCC4(C)C3CCC21C (some centres not stated) [3,20-Dioxopregn-4-ene-17-yl acetate (4)] | 0.5
2 | CCc1ccc(C(=O)O[C@]2(C(C)=O)CCC3C4CCC5=C(Br)C(=O)CCC5(C)C4CCC32C)cc1 (some centres not stated) [4-Bromo-3,20-dioxopregn-4-ene-17-yl-4-ethylbenzoate (8b)] | 0.05
3 | CC(=O)[C@@]1(O)CCC2C3CCC4=C(Br)C(=O)CCC4(C)C3CCC21C (stereo partly drawn) [4-Bromo-17α-hydroxypregn-4-ene-3,20-dione (7b)] | 0.0016
4 | CCc1ccc(C(=O)O[C@]2(C(C)=O)CCC3C4CCC5=C(Cl)C(=O)CCC5(C)C4CCC32C)cc1 (some centres not stated) [4-Chloro-3,20-dioxopregn-4-ene-17-yl-4-ethylbenzoate (8a)] | 0.073
5 | CC(=O)[C@@]1(O)CCC2C3CCC4=C(Cl)C(=O)CCC4(C)C3CCC21C (stereo partly drawn) [4-Chloro-17α-hydroxypregn-4-ene-3,20-dione (7a)] | 0.063
6 | CC(C)(C)NC(=O)[C@H]1CC[C@H]2[C@@H]3CC[C@H]4NC(=O)C=C[C@]4(C)[C@H]3CC[C@]12C [4a,6a-Dimethyl-2-oxo-2,4a,4b,5,6,6a,7,8,9,9a,9b,10,11,11a-tetradecahydro-1H-indeno[5,4-f]quinoline-7-carboxylic acid tert-butylamide] | 0.0013
7 | CC(=O)[C@@]1(O)CCC2C3CCC4=CC(=O)CCC4(C)C3CCC21C (stereo partly drawn) [17α-Hydroxypregn-4-ene-3,20-dione (5)] | 0.002
